Data as given in patent US12036226B2, “Methods of treating subjects having diabetes with chronic kidney disease” (Poxel SA, priority 2018, dated 2024).

Test system: acute renal failure (ARF) rat model
Details: for plasma glucose: normal rats, 180 minutes, imeglimin and metformin 100 mg/h/kg, phenformin 50 mg/h/kg i.v.
Protocol: The creatinine level, correlated with the degree of the renal function failure, was tested for each rat 7 days after the first injection of gentamicin. […] The creatinine level was determined on the Monarch Chemistry Systems using the IL Test creatinine in rat plasma samples. This monochromatic analysis is based on the formation of a red colored complex between creatinine and picric acid under alkaline conditions.

| effect on plasma lactate (rat, in vivo) | effect on plasma lactate level (rat, in vivo) | lactic acidosis (rat, in vivo) | plasma glucose after sharp fall (rat, in vivo) | SMILES | plasma glucose | effect on plasma [HCO3−] (rat, in vivo) | plasma H+ concentration / metabolic acidosis signs (rat, in vivo) | plasma accumulation (rat, in vivo) |
| --- | --- | --- | --- | --- | --- | --- | --- | --- |
| significantly increased plasma lactate | significantly increased lactatemia | induced lactic acidosis | 2.4 ± 1.1 mmol/L | [H]/N=C(/N)N/C(=N/[H])NCCc1ccccc1 [phenformin] | 2.9 ± 1 mmol/L | significantly decreased plasma concentration of [HCO3^−] | increased significantly plasma H+ concentration |  |
| significantly increased plasma lactate | significantly increased lactatemia | induced lactic acidosis | 1.9 ± 1 mmol/L | CN(C)C(=N)N=C(N)N [metformin] | 4 ± 0.7 mmol/L | significantly decreased plasma concentration of [HCO3^−] | increased significantly plasma H+ concentration | plasma accumulation of metformin and imeglimin was observed |
